The supplement of paper PMC11061612

How the values were obtained:
Assay in all cases: Bliss excess, mean over the matrix (fraction); higher = more synergy
[1] = test system: CPC-N (Small Cell Lung Carcinoma)
How it was run: (§1)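 Cell lines grown in DMEM/F12 or RPMI with 10% FBS were plated in 1536-well plates and held 24 hours at 37°C, 5% CO2 before 72 hours of exposure to two-drug dose matrices, with DMSO typically at 0.2%. CellTiter-Glo 2.0 luminescence gave viability, which was converted to inhibition. Vehicle wells were set to 0 and blank wells to 1. Combination Emax is the second-highest inhibition in the matrix, and Bliss excess is the observed combination effect minus the expected EA + EB − EA·EB, where EA and EB are the single-agent effects.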

[2] = test system: P32-ISH (Burkitt's Lymphoma)
How it was run: as §1

[3] = test system: NCI-H1876 (Small Cell Lung Carcinoma)
How it was run: as §1

[4] = test system: SUP-M2 (T-Cell Non-Hodgkin's Lymphoma)
How it was run: as §1

[5] = test system: COR-L88 (Small Cell Lung Carcinoma)
How it was run: as §1

[6] = test system: ZR-75-30 (Breast Carcinoma)
How it was run: as §1

NCI-H2373 (Mesothelioma) = test system: NCI-H2373 (Mesothelioma)
How it was run: as §1

ES6 (Ewing's Sarcoma) = test system: ES6 (Ewing's Sarcoma)
How it was run: as §1

[7] = test system: RCC-JW (Kidney Carcinoma)
How it was run: as §1

[8] = test system: MONO-MAC-6 (Acute Myeloid Leukemia)
How it was run: as §1

[9] = test system: MOLT-13 (T-Lymphoblastic Leukemia)
How it was run: as §1

[10] = test system: NCI-H3118 (Head and Neck Carcinoma)
How it was run: as §1

[11] = test system: MOLP-8 (Plasma Cell Myeloma)
How it was run: as §1

[12] = test system: LS-1034 (Colorectal Carcinoma)
How it was run: as §1

[13] = test system: C-33-A (Cervical Carcinoma)
How it was run: as §1

[14] = test system: MDA-MB-415 (Breast Carcinoma)
How it was run: as §1

[15] = test system: MS-1 (Small Cell Lung Carcinoma)
How it was run: as §1

[16] = test system: DBTRG-05MG (Glioblastoma)
How it was run: as §1

[17] = test system: OVCAR-3 (Ovarian Carcinoma)
How it was run: as §1

[18] = test system: SiHa (Cervical Carcinoma)
How it was run: as §1

Structure (SMILES)	Bliss excess [1]	Bliss excess [2]	Bliss excess [3]	Bliss excess [4]	Bliss excess [5]	Bliss excess [6]	Bliss excess (NCI-H2373 (Mesothelioma))	Bliss excess (ES6 (Ewing's Sarcoma))	Bliss excess [7]	Bliss excess [8]	Bliss excess [9]	Bliss excess [10]	Bliss excess [11]	Bliss excess [12]	Bliss excess [13]	Bliss excess [14]	Bliss excess [15]	Bliss excess [16]	Bliss excess [17]	Bliss excess [18]
CC1(C)CCC(CN2CCN(c3ccc(C(=O)NS(=O)(=O)c4ccc(NCC5CCOCC5)c([N+](=O)[O-])c4)c(Oc4cnc5[nH]ccc5c4)c3)CC2)=C(c2ccc(Cl)cc2)C1 [Venetoclax] + C[C@@H]1COCCN1C2=NC(=NC(=C2)C3(CC3)[S@](=N)(=O)C)C4=C5C=CNC5=NC=C4 [AZD6738] (first compound max 1 µM, 7x7, partner max 10 µM)	-0.0526	0.0365	-0.0358	0.0239	0.0109	-0.0359	-0.0052	-0.0314	-0.0484	-0.0322	0.0201	-0.0643	-0.0193	-0.0255	-0.0127	-0.0584	0.0066	0.0023	-0.0108	-0.0036
CN(CCO)CC[C@H](CSc1ccccc1)Nc1ccc(S(=O)(=O)NC(=O)c2ccc(N3CCC([C@@H](O)c4ccccc4-c4ccc(Cl)cc4)CC3)cc2)cc1S(=O)(=O)C(F)(F)F [AZD4320] + CCN(CCO)CCCOc1ccc2c(Nc3cc(CC(=O)Nc4cccc(F)c4)[nH]n3)ncnc2c1 [AZD2811] (first compound max 1 µM, 7x7, partner max 1 µM)	0.0092	-0.0231	0.0935	0.0503	0.0591	-0.0024	-0.0366	-0.0229	-0.0023	0.145	-0.0204	0.002	0.0283	-0.0337	-0.0283	0.0756	0.0349	0.0363	-0.005	-0.0219
COc1nnc2ccc(N3CCC(c4ccc(OCCN5CCN(C)C(=O)[C@H]5C)cc4)CC3)nn12 [AZD5153] + C[C@@H]1COCCN1C2=NC(=NC(=C2)C3(CC3)[S@](=N)(=O)C)C4=C5C=CNC5=NC=C4 [AZD6738] (first compound max 1 µM, 7x7, partner max 10 µM)	-0.0692	-0.0039	0.089	-0.0205	-0.0201	0.019	-0.0263	0.0339	0.0051	-0.031	0.02	-0.0879	-0.0211	-0.0132	0.0515	-0.0009	-0.0701	0.0213	0.0931	0.101
COc1cccc(OCCCN)c1-c1cc(Nc2cnc(C#N)cn2)n[nH]1 [Prexasertib] + O=C(c1cc(Cc2n[nH]c(=O)c3ccccc23)ccc1F)N1CCN(C(=O)C2CC2)CC1 [Olaparib] (first compound max 1 µM, 7x7, partner max 10 µM)	-0.0458	-0.0205	-0.0338	0.0298	-0.157	-0.108	0.001	0.0253	-0.0896	-0.0195	0.0013	-0.0501	-0.0802	-0.027	-0.0329	0.0074	-0.0481	-0.025	0.0265	0.0226
COc1cc2ncnc(Nc3ccc(F)c(Cl)c3)c2cc1OCCCN1CCOCC1 [Gefitinib] + CC(C)n1c(=O)n(C)c2cnc3cc(F)c(-c4ccc(OCCCN5CCCCC5)nc4)cc3c21 [AZD1390] (first compound max 10 µM, 7x7, partner max 0.3 µM)	-0.0369	-0.0116	-0.074	-0.0522	-0.0652	-0.0587	-0.0751	-0.0574	-0.069	-0.0545	-0.0246	-0.0011	-0.0584	-0.0368	-0.0656	-0.103	-0.0252	-0.0482	-0.056	-0.0732
NC1(C(=O)N[C@@H](CCO)c2ccc(Cl)cc2)CCN(c2ncnc3[nH]ccc23)CC1 [Capivasertib] + CCN(CCO)CCCOc1ccc2c(Nc3cc(CC(=O)Nc4cccc(F)c4)[nH]n3)ncnc2c1 [AZD2811] (first compound max 10 µM, 7x7, partner max 1 µM)	-0.0523	-0.021	0.0781	-0.0005	-0.0738	-0.0115	-0.079	-0.0055	-0.0014	0.0633	-0.0569	-0.0242	0.0345	-0.0634	0.0297	0.0001	0.0059	0.03	0.0224	0.0067
CN(C)CCCOc1ccc(-c2ccc3ncc4c(c3c2)n(C2CCOCC2)c(=O)n4C)cn1 [AZD0156] + C[C@@H]1COCCN1C2=NC(=NC(=C2)C3(CC3)[S@](=N)(=O)C)C4=C5C=CNC5=NC=C4 [AZD6738] (first compound max 1 µM, 7x7, partner max 10 µM)	0.0316	0.0435	0.0226	0.0555	0.0772	-0.0305	-0.0065	-0.0076	-0.0531	-0.0253	0.0472	-0.0235	0.0203	0.0161	0.0157	-0.007	0.0279	-0.022	0.0353	-0.0456
Cn1cnc2c(F)c(Nc3ccc(Br)cc3Cl)c(C(=O)NOCCO)cc21 [Selumetinib] + C[C@@H]1COCCN1C2=NC(=NC(=C2)C3(CC3)[S@](=N)(=O)C)C4=C5C=CNC5=NC=C4 [AZD6738] (first compound max 10 µM, 7x7, partner max 10 µM)	-0.046	-0.0153	0.0218	0.012	-0.0124	-0.0495	-0.0019	-0.043	-0.0393	-0.0052	0.106	0.0091	0.0551	-0.0316	0.0486	-0.0395	-0.0521	0.0599	-0.0202	0.0006
CN(CCO)CC[C@H](CSc1ccccc1)Nc1ccc(S(=O)(=O)NC(=O)c2ccc(N3CCC([C@@H](O)c4ccccc4-c4ccc(Cl)cc4)CC3)cc2)cc1S(=O)(=O)C(F)(F)F [AZD4320] + Cn1cnc2c(F)c(Nc3ccc(Br)cc3Cl)c(C(=O)NOCCO)cc21 [Selumetinib] (first compound max 1 µM, 7x7, partner max 3 µM)	-0.0185	0.044	0.0752	0.0058	0.121	-0.06	0.0263	-0.0326	-0.0079	0.0401	0.0816	0.0807	0.0614	-0.0454	0.0597	-0.0181	0.0229	0.0074	0.0276	-0.0315
C[C@@H]1COCCN1c1cc(C2([S@](C)(=N)=O)CC2)nc(-c2ccnc3[nH]ccc23)n1 [AZD6738] + O=C(c1cc(Cc2n[nH]c(=O)c3ccccc23)ccc1F)N1CCN(C(=O)C2CC2)CC1 [Olaparib] (first compound max 10 µM, 7x7, partner max 10 µM)	0.015	-0.0424	-0.005	0.0646	-0.12	-0.0408	0.0165	0.0128	0.0465	-0.0438	0.0645	-0.0038	0.003	-0.0391	-0.0049	0.0239	0.0056	0.0096	0.0782	0.0106
Cc1c2c(nn1C)CSCc1cc(n(C)n1)CSc1cc(c3ccccc3c1)OCCCc1c(C(=O)O)n(C)c3c-2c(Cl)ccc13 [AZD5991] + Cn1cnc2c(F)c(Nc3ccc(Br)cc3Cl)c(C(=O)NOCCO)cc21 [Selumetinib] (first compound max 1 µM, 7x7, partner max 3 µM)	0.0185	0.0025	0.0841	0.048	-0.0114	-0.0609	-0.0345	-0.039	-0.0319	0.0117	0.0203	0.0324	0.0291	0.0513	0.0077	-0.0419	-0.0362	0.0307	0.0353	0.0015
Cn1cnc2c(F)c(Nc3ccc(Br)cc3Cl)c(C(=O)NOCCO)cc21 [Selumetinib] + CC(C)n1c(=O)n(C)c2cnc3cc(F)c(-c4ccc(OCCCN5CCCCC5)nc4)cc3c21 [AZD1390] (first compound max 10 µM, 7x7, partner max 0.3 µM)	-0.0396	-0.0083	0.0068	0.007	-0.0086	-0.044	-0.0044	-0.0639	-0.051	-0.0166	0.0447	0.0525	-0.0274	-0.0198	0.0134	-0.047	-0.02	0.0213	-0.0387	-0.018
C=CCn1c(=O)c2cnc(Nc3ccc(N4CCN(C)CC4)cc3)nc2n1-c1cccc(C(C)(C)O)n1 [AZD1775] + C[C@@H]1COCCN1C2=NC(=NC(=C2)C3(CC3)[S@](=N)(=O)C)C4=C5C=CNC5=NC=C4 [AZD6738] (first compound max 1 µM, partner max 10 µM)	0.0072	0.0304	0.0099	-0.0015	0.04	0.0186	0.025	0.0509	0.0571	0.0178	0.0735	0.0218	-0.0064	0.0097	0.0554	0.0112	0.0322	-0.0076	0.113	0.0019
CN(CCO)CC[C@H](CSc1ccccc1)Nc1ccc(S(=O)(=O)NC(=O)c2ccc(N3CCC([C@@H](O)c4ccccc4-c4ccc(Cl)cc4)CC3)cc2)cc1S(=O)(=O)C(F)(F)F [AZD4320] + C1CN(CCC1(C(=O)N[C@@H](CCO)C2=CC=C(C=C2)Cl)N)C3=NC=NC4=C3C=CN4 [Capivasertib] (first compound max 1 µM, 7x7, partner max 3 µM)	-0.0158	0.001	-0.0593	-0.0192	0.0065	-0.0914	-0.0351	-0.0522	-0.0559	-0.0438	-0.0371	-0.0476	-0.025	-0.0089	-0.0302	-0.0284	-0.0037	-0.047	-0.0393	-0.0476
